Reference: US10730874B2 (Shire Human Genetic Therapies, Inc., priority 2018, dated 2020)

Biological target: human activated kallikrein enzyme (plasma kallikrein) (Homo sapiens (Human), UniProt P03952)
Assay: Inhibition of human activated plasma kallikrein, fluorogenic peptide substrate assay, 500 pM enzyme format
Assay type: biochemical
Details: 500 pM activated kallikrein enzyme, 300 uM Pro-Phe-Arg-7-amido-4-methylcoumarin substrate, 30 min preincubation, 10 min at RT; read-out: Primary Dose Response Assay: Average EC50
Procedure, shortened: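 Buffer 20 mM Tris pH 7.5, EDTA, NaCl, PEG-400, Triton X-100; 300 uM Pro-Phe-Arg-AMC; enzyme–inhibitor preincubation 30 min RT. Format one: 500 pM kallikrein, 10 min RT reaction; format two: 5 pM kallikrein, 18 h RT reaction. Fluorescence read at 460 nm (380 nm excitation).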

Chain of human activated kallikrein enzyme (plasma kallikrein) (P03952 391-638): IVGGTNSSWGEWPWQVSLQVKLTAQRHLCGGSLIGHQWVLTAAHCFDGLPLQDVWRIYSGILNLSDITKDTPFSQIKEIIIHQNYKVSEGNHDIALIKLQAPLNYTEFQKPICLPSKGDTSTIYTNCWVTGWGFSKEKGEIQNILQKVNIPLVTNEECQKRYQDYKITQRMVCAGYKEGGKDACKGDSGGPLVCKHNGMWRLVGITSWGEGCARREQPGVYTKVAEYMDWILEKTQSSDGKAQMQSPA
Chain of human activated kallikrein enzyme (plasma kallikrein) (P03952 20-390 partner): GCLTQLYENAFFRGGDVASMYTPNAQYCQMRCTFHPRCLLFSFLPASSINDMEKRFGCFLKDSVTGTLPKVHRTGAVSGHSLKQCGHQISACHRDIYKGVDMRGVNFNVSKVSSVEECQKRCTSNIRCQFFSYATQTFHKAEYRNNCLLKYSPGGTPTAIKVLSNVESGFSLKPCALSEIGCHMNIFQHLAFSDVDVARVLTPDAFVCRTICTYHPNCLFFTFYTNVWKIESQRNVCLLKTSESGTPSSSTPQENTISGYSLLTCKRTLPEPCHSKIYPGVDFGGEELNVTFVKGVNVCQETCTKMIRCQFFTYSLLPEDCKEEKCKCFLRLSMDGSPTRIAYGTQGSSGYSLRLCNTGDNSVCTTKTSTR

SMILES	EC50 [nM]
CC(=O)c1cc(C2CC2)cn2cc(Cn3cc(C(=O)NCc4ncn5ccc(Cl)cc45)cn3)nc12 [Example I-104a, 1-((8-acetyl-6-cyclopropylimidazo[1,2-a]pyridin-2-yl)methyl)-N-((7-chloroimidazo[1,5-a]pyridin-1-yl)methyl)-1H-pyrazole-4-carboxamide]	< 1
COCc1c(C(=O)NCc2ncn3ccc(Cl)cc23)cnn1Cc1cn2cc(C3CC3)ccc2n1 [Example I-32, N-((7-chloroimidazo[1,5-a]pyridin-1-yl)methyl)-1-((6-cyclopropylimidazo[1,2-a]pyridin-2-yl)methyl)-5-(methoxymethyl)-1H-pyrazole-4-carboxamide]	10 to 100
C#Cc1ccn2cnc(CNC(=O)c3cnn(Cc4cn5cc(C6CC6)ccc5n4)c3)c2c1 [Example I-66, 1-((6-cyclopropylimidazo[1,2-a]pyridin-2-yl)methyl)-N-((7-ethynylimidazo[1,5-a]pyridin-1-yl)methyl)-1H-pyrazole-4-carboxamide]	< 1
O=C(NCc1ncn2ccc(Cl)c(F)c12)c1cnn(Cc2cn3nc(C4CC4)ccc3n2)c1 [Example I-146, N-((7-chloro-8-fluoroimidazo[1,5-a]pyridin-1-yl)methyl)-1-((6-cyclopropylimidazo[1,2-b]pyridazin-2-yl)methyl)-1H-pyrazole-4-carboxamide]	< 1
CC(F)c1cc(C2CC2)cn2cc(Cn3cc(C(=O)NCc4ncn5ccc(Cl)c(F)c45)nn3)nc12 (centres unmarked) [Example I-213, N-((7-chloro-8-fluoroimidazo[1,5-a]pyridin-1-yl)methyl)-1-((6-cyclopropyl-8-(1-fluoroethyl)imidazo[1,2-a]pyridin-2-yl)methyl)-1H-1,2,3-triazole-4-carboxamide]	< 1
O=C(NCc1ncn2ccc(Cl)c(F)c12)c1cn(Cc2cn3cc(C4CC4)cc(-n4cn[nH]c(=O)c4=O)c3n2)nn1 [Example I-247, N-((7-chloro-8-fluoroimidazo[1,5-a]pyridin-1-yl)methyl)-1-((6-cyclopropyl-8-(5,6-dioxo-5,6-dihydro-1,2,4-triazin-4(1H)-yl)imidazo[1,2-a]pyridin-2-yl)methyl)-1H-1,2,3-triazole-4-carboxamide]	< 1
O=C(NCc1ncn2ccc(Cl)c(F)c12)c1cn(Cc2cn3cc(C4CC4)cc(CN4CCCC4)c3n2)nn1 [Example I-295, N-((7-chloro-8-fluoroimidazo[1,5-a]pyridin-1-yl)methyl)-1-((6-cyclopropyl-8-(pyrrolidin-1-ylmethyl)imidazo[1,2-a]pyridin-2-yl)methyl)-1H-1,2,3-triazole-4-carboxamide]	< 1
O=C(NCc1ncn2ccc(Cl)cc12)c1cnn(Cc2cn3cc(C4CC4)cc(CO)c3n2)c1 [Example I-75, N-((7-chloroimidazo[1,5-a]pyridin-1-yl)methyl)-1-((6-cyclopropyl-8-(hydroxymethyl)imidazo[1,2-a]pyridin-2-yl)methyl)-1H-pyrazole-4-carboxamide]	< 1
CCOC(=O)C(C)(C)Cc1cc(C2CC2)cn2cc(Cn3cc(C(=O)NCc4ncn5ccc(Cl)c(F)c45)nn3)nc12 [Example I-205, ethyl 3-(2-((4-(((7-chloro-8-fluoroimidazo[1,5-a]pyridin-1-yl)methyl)carbamoyl)-1H-1,2,3-triazol-1-yl)methyl)-6-cyclopropylimidazo[1,2-a]pyridin-8-yl)-2,2-dimethylpropanoate]	< 1
N#Cc1cc(C2CC2)cn2cc(Cn3cc(C(=O)NCc4ncn5ccc(Cl)cc45)nn3)nc12 [Example I-112, N-((7-chloroimidazo[1,5-a]pyridin-1-yl)methyl)-1-((8-cyano-6-cyclopropylimidazo[1,2-a]pyridin-2-yl)methyl)-1H-1,2,3-triazole-4-carboxamide]	< 1
COCCOc1cc(C2CC2)cn2cc(Cn3cc(C(=O)NCc4ncn5ccc(Cl)cc45)cn3)nc12 [Example I-103, N-((7-chloroimidazo[1,5-a]pyridin-1-yl)methyl)-1-((6-cyclopropyl-8-(2-methoxyethoxy)imidazo[1,2-a]pyridin-2-yl)methyl)-1H-pyrazole-4-carboxamide]	< 1
O=C(NCc1ncn2ccc(Cl)cc12)c1cnn(Cc2cn3cc(Br)c(Cl)cc3n2)c1 [Example I-36, 1-((6-bromo-7-chloroimidazo[1,2-a]pyridin-2-yl)methyl)-N-((7-chloroimidazo[1,5-a]pyridin-1-yl)methyl)-1H-pyrazole-4-carboxamide]	10 to 100
O=C(NCc1ncn2ccc(Cl)cc12)c1cnn(Cc2cn3cc(C4CC4)c(F)cc3n2)c1 [Example I-21, N-((7-chloroimidazo[1,5-a]pyridin-1-yl)methyl)-1-((6-cyclopropyl-7-fluoroimidazo[1,2-a]pyridin-2-yl)methyl)-1H-pyrazole-4-carboxamide]	1 to 10
CCOC(=O)COc1cc(C2CC2)cn2cc(Cn3cc(C(=O)NCc4ncn5ccc(Cl)c(F)c45)nn3)nc12 [Example I-207, ethyl 2-((2-((4-(((7-chloro-8-fluoroimidazo[1,5-a]pyridin-1-yl)methyl)carbamoyl)-1H-1,2,3-triazol-1-yl)methyl)-6-cyclopropylimidazo[1,2-a]pyridin-8-yl)oxy)acetate]	< 1
N#Cc1cc(C2CC2)cn2cc(Cc3nnc(C(=O)NCc4ncn5ccc(Cl)cc45)o3)nc12 [Example I-128, N-((7-chloroimidazo[1,5-a]pyridin-1-yl)methyl)-5-((8-cyano-6-cyclopropylimidazo[1,2-a]pyridin-2-yl)methyl)-1,3,4-oxadiazole-2-carboxamide]	< 1
CCOC(=O)C(C)(C)Cc1cc(C2CC2)cn2cc(Cn3cc(C(=O)NCc4ncn5ccc(Cl)cc45)nn3)nc12 [Example I-168, ethyl 3-(2-((4-(((7-chloroimidazo[1,5-a]pyridin-1-yl)methyl)carbamoyl)-1H-1,2,3-triazol-1-yl)methyl)-6-cyclopropylimidazo[1,2-a]pyridin-8-yl)-2,2-dimethylpropanoate]	< 1
O=C(NCc1ncn2ccc(Cl)c(F)c12)c1cn(Cc2cn3nc(C4CC4)cc(N4CCC(C(=O)O)C4)c3n2)nn1 (centres unmarked) [Example I-267, 1-(2-((4-(((7-chloro-8-fluoroimidazo[1,5-a]pyridin-1-yl)methyl)carbamoyl)-1H-1,2,3-triazol-1-yl)methyl)-6-cyclopropylimidazo[1,2-b]pyridazin-8-yl)pyrrolidine-3-carboxylic acid]	< 1
O=C(NCc1ncn2ccc(Cl)c(F)c12)c1cn(Cc2cn3cc(C4CC4)c(F)cc3n2)nn1 [Example I-239, N-((7-chloro-8-fluoroimidazo[1,5-a]pyridin-1-yl)methyl)-1-((6-cyclopropyl-7-fluoroimidazo[1,2-a]pyridin-2-yl)methyl)-1H-1,2,3-triazole-4-carboxamide]	1 to 10
Cc1ncn(-c2cc(C3CC3)cn3cc(Cn4cc(C(=O)NCc5ncn6ccc(Cl)c(F)c56)nn4)nc23)n1 [Example I-258, N-((7-chloro-8-fluoroimidazo[1,5-a]pyridin-1-yl)methyl)-1-((6-cyclopropyl-8-(3-methyl-1H-1,2,4-triazol-1-yl)imidazo[1,2-a]pyridin-2-yl)methyl)-1H-1,2,3-triazole-4-carboxamide]	< 1
O=C(NCc1ncn2ccc(Cl)c(F)c12)c1ccn(Cc2cn3cc(C4CC4)ccc3n2)c1 [Example I-276, N-((7-chloro-8-fluoroimidazo[1,5-a]pyridin-1-yl)methyl)-1-((6-cyclopropylimidazo[1,2-a]pyridin-2-yl)methyl)-1H-pyrrole-3-carboxamide]	< 1
CNc1cccc2nc(Cn3cc(C(=O)NCc4ncn5ccc(Cl)cc45)cn3)cn12 [Example I-77, N-((7-chloroimidazo[1,5-a]pyridin-1-yl)methyl)-1-((5-(methylamino)imidazo[1,2-a]pyridin-2-yl)methyl)-1H-pyrazole-4-carboxamide]	10 to 100
CCOC(=O)C(C)(C)Cc1cc(C2CC2)cn2cc(Cn3cc(C(=O)NCc4ncn5ccc(Cl)cc45)cn3)nc12 [Example I-162, ethyl 3-(2-((4-(((7-chloroimidazo[1,5-a]pyridin-1-yl)methyl)carbamoyl)-1H-pyrazol-1-yl)methyl)-6-cyclopropylimidazo[1,2-a]pyridin-8-yl)-2,2-dimethylpropanoate]	< 1
O=C(NCc1ncn2ccc(Cl)c(F)c12)c1cn(Cc2cn3cc(Cl)c(Cl)cc3n2)nn1 [Example I-188, N-((7-chloro-8-fluoroimidazo[1,5-a]pyridin-1-yl)methyl)-1-((6,7-dichloroimidazo[1,2-a]pyridin-2-yl)methyl)-1H-1,2,3-triazole-4-carboxamide]	1 to 10
O=C(NCc1ncn2ccc(Cl)c(F)c12)c1cnn(Cc2cn3cc(C4CC4)cc(Cc4nnco4)c3n2)c1 [Example I-214, 1-((8-((1,3,4-oxadiazol-2-yl)methyl)-6-cyclopropylimidazo[1,2-a]pyridin-2-yl)methyl)-N-((7-chloro-8-fluoroimidazo[1,5-a]pyridin-1-yl)methyl)-1H-pyrazole-4-carboxamide]	< 1
CCOC(=O)CCc1cc(C2CC2)cn2cc(Cn3cc(C(=O)NCc4ncn5ccc(Cl)cc45)cn3)nc12 [Example I-100b, ethyl 3-(2-((4-(((7-chloroimidazo[1,5-a]pyridin-1-yl)methyl)carbamoyl)-1H-pyrazol-1-yl)methyl)-6-cyclopropylimidazo[1,2-a]pyridin-8-yl)propanoate]	< 1
O=C(NCc1ncn2ccc(Cl)cc12)c1cnn(Cc2cn3cc(C4CC4)ccc3n2)c1 [Example I-2, N-((7-chloroimidazo[1,5-a]pyridin-1-yl)methyl)-1-((6-cyclopropylimidazo[1,2-a]pyridin-2-yl)methyl)-1H-pyrazole-4-carboxamide]	< 1
